# How the values were obtained:
# [1] = compound: CC(=O)O[C@H]1C(=O)[C@@]2(C)[C@H]([C@H](OC(=O)c3ccccc3)[C@]3(O)C[C@H](OC(=O)[C@H](O)[C@@H](NC(=O)c4ccccc4)c4ccccc4)C(C)=C1C3(C)C)[C@]1(OC(C)=O)CO[C@@H]1C[C@@H]2O [Paclitaxel]
# [2] = compound: CC(C)NC[C@@H](C(=O)N1CCN(c2ncnc3c2[C@H](C)C[C@H]3O)CC1)c1ccc(Cl)cc1 [Ipatasertib/GDC0068]
# [3] = compound: CCNC(=O)c1noc(-c2cc(C(C)C)c(O)cc2O)c1-c1ccc(CN2CCOCC2)cc1 [Luminespib/NVP-AUY922]
# [4] = compound: CN(C)C/C=C/C(=O)Nc1ccc(O[C@@H]2CCC[C@@H](Nc3ncc(Cl)c(-c4c[nH]c5ccccc45)n3)C2)cc1 [BSJ-01-175]
# [5] = compound: CN(C)CC[C@H](CSc1ccccc1)Nc1ccc(S(=O)(=O)NC(=O)c2ccc(N3CCN(Cc4ccccc4-c4ccc(Cl)cc4)CC3)cc2)cc1[N+](=O)[O-] [ABT-737]
# [6] = compound: T1, CN1CC[C@H](c2c(O)cc(O)c3c(=O)cc(-c4ccccc4Cl)oc23)[C@H](O)C1 [Flavopiridol]
# [7] = compound: COc1cccc2c1C(=O)c1c(O)c3c(c(O)c1C2=O)C[C@@](O)(C(=O)CO)C[C@@H]3O[C@H]1C[C@H](N)[C@H](O)[C@H](C)O1 [Doxorubicin]
# [8] = compound: Cc1nc(-c2cn3c(n2)-c2ccc(-c4cnn(C(C)(C)C(N)=O)c4)cc2OCC3)n(C(C)C)n1 [Taselisib/GDC0032]
# [9] = compound: O=C(c1cc(Cc2n[nH]c(=O)c3ccccc23)ccc1F)N1CCN(C(=O)C2CC2)CC1 [Olaparib/AZD2281]
# [10] = compound: C=CC(=O)Nc1ccc(C(=O)Nc2[nH]nc3c2CN(C(=O)N[C@H](CN(C)C)c2ccccc2)C3(C)C)cc1 [YKL-5-124]; test: GR value, 72 h; higher = faster growth (1 = untreated, <0 = killing);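 further: breast cancer and non-malignant breast epithelial lines, nine half-log doses, viable cells counted by Hoechst and LIVE/DEAD dye imaging versus time-zero plates and DMSO controls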
# [11] = compound: CC(=O)c1c(C)c2cnc(Nc3ccc(N4CCN(CCOCCOCCOCCNC(=O)COc5cccc6c5C(=O)N(C5CCC(=O)NC5=O)C6=O)CC4)cn3)nc2n(C2CCCC2)c1=O [BSJ-03-123]; test: as above
# [12] = compound: CC(=O)c1c(C)c2cnc(Nc3ccc(N4CCNCC4)cn3)nc2n(C2CCCC2)c1=O; test: as above
# [13] = compound: CCN1CCN(Cc2ccc(Nc3ncc(F)c(-c4cc(F)c5nc(C)n(C(C)C)c5c4)n3)nc2)CC1; test: as above
# [14] = compound: CCc1cnn2c(NCc3ccc[n+]([O-])c3)cc(N3CCCC[C@H]3CCO)nc12; test: as above
# [15] = compound: CN(C)C(=O)c1cc2cnc(Nc3ccc(N4CCNCC4)cn3)nc2n1C1CCCC1 [LEE011/Ribociclib]; test: as above
# [16] = compound: CN(C)C/C=C/C(=O)Nc1ccc(C(=O)N2CCC[C@@H](Nc3ncc(Cl)c(-c4c[nH]c5ccccc45)n3)C2)cc1 [THZ531]; test: as above
# [17] = compound: T1, Flavopiridol; test: as above
# 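Wherever GR50, 72 h is given: breast cancer and non-malignant breast epithelial cell lines, Deep Dye Drop or Dye Drop imaging, nine half-log doses, GR normalized to time-zero plates and DMSO-only controls.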
cell line,measurement,setting,value
SUM229PE,"GR50, 72 h",[1],0.00176 µM
same,"GR50, 72 h",[2],> 10 µM
same,"GR50, 72 h",[3],0.00595 µM
same,"GR50, 72 h",[4],0.0424 µM
same,"GR50, 72 h",[5],8.41 µM
same,"GR50, 72 h",[6],0.109 µM
same,"GR50, 72 h",[7],0.031 µM
same,"GR50, 72 h",[8],0.377 µM
same,"GR50, 72 h",[9],> 10 µM
same,GR value,[10]; 0.001 µM,0.467 GR
same,GR value,[10]; 0.003162 µM,0.321 GR
same,GR value,[10]; 0.01 µM,0.295 GR
same,GR value,[10]; 0.03162 µM,0.291 GR
same,GR value,[10]; 0.1 µM,0.27 GR
same,GR value,[10]; 0.3162 µM,0.225 GR
same,GR value,[10]; 1 µM,0.238 GR
same,GR value,[10]; 3.162 µM,0.17 GR
same,GR value,[10]; 10 µM,-0.0733 GR
same,GR value,[11]; 0.001 µM,0.887 GR
same,GR value,[11]; 0.003162 µM,0.881 GR
same,GR value,[11]; 0.01 µM,0.87 GR
same,GR value,[11]; 0.03162 µM,0.857 GR
same,GR value,[11]; 0.1 µM,0.758 GR
same,GR value,[11]; 0.3162 µM,0.785 GR
same,GR value,[11]; 1 µM,0.568 GR
same,GR value,[11]; 3.162 µM,0.497 GR
same,GR value,[11]; 10 µM,0.114 GR
same,GR value,[12]; 0.0003162 µM,0.988 GR
same,GR value,[12]; 0.001 µM,0.983 GR
same,GR value,[12]; 0.003162 µM,0.933 GR
same,GR value,[12]; 0.01 µM,0.906 GR
same,GR value,[12]; 0.03162 µM,0.848 GR
same,GR value,[12]; 0.1 µM,0.711 GR
same,GR value,[12]; 0.3162 µM,0.563 GR
same,GR value,[12]; 1 µM,0.536 GR
same,GR value,[12]; 3.162 µM,0.392 GR
same,GR value,[13]; 0.001 µM,0.924 GR
same,GR value,[13]; 0.003162 µM,0.888 GR
same,GR value,[13]; 0.01 µM,0.831 GR
same,GR value,[13]; 0.03162 µM,0.727 GR
same,GR value,[13]; 0.1 µM,0.611 GR
same,GR value,[13]; 0.3162 µM,0.56 GR
same,GR value,[13]; 1 µM,0.439 GR
same,GR value,[13]; 3.162 µM,0.343 GR
same,GR value,[13]; 10 µM,0.284 GR
same,GR value,[14]; 0.0001 µM,1.04 GR
same,GR value,[14]; 0.0003162 µM,1.02 GR
same,GR value,[14]; 0.001 µM,0.991 GR
same,GR value,[14]; 0.003162 µM,1.01 GR
same,GR value,[14]; 0.01 µM,0.796 GR
same,GR value,[14]; 0.03162 µM,-0.122 GR
same,GR value,[14]; 0.1 µM,-0.194 GR
same,GR value,[14]; 0.3162 µM,-0.203 GR
same,GR value,[14]; 1 µM,-0.209 GR
same,GR value,[15]; 0.001 µM,0.91 GR
same,GR value,[15]; 0.003162 µM,0.911 GR
same,GR value,[15]; 0.01 µM,0.822 GR
same,GR value,[15]; 0.03162 µM,0.806 GR
same,GR value,[15]; 0.1 µM,0.758 GR
same,GR value,[15]; 0.3162 µM,0.722 GR
same,GR value,[15]; 1 µM,0.728 GR
same,GR value,[15]; 3.162 µM,0.633 GR
same,GR value,[15]; 10 µM,0.562 GR
same,GR value,[16]; 0.0001 µM,1.03 GR
same,GR value,[16]; 0.0003162 µM,0.991 GR
same,GR value,[16]; 0.001 µM,0.943 GR
same,GR value,[16]; 0.003162 µM,1.01 GR
same,GR value,[16]; 0.01 µM,1.07 GR
same,GR value,[16]; 0.03162 µM,1.08 GR
same,GR value,[16]; 0.1 µM,0.915 GR
same,GR value,[16]; 0.3162 µM,0.506 GR
same,GR value,[16]; 1 µM,-0.133 GR
same,GR value,[17]; 0.0001 µM,0.982 GR
same,GR value,[17]; 0.0003162 µM,0.93 GR
same,GR value,[17]; 0.001 µM,0.925 GR
same,GR value,[17]; 0.003162 µM,0.954 GR
same,GR value,[17]; 0.01 µM,0.927 GR
same,GR value,[17]; 0.03162 µM,0.914 GR
same,GR value,[17]; 0.1 µM,0.559 GR
same,GR value,[17]; 0.3162 µM,0.0326 GR
same,GR value,[17]; 1 µM,-0.182 GR

# Source: the supplement of paper PMC9663587
